In patent US20030187261A1, “Purine derivatives, process for their preparation and use thereof” (priority 2000, published 2003):
Read-outs that look alike come from different tables or passages of the source.

Legend:
[1] = system: T-lymphocyte leukemia Molt3 cell line; test: cell growth of Molt3 cell line, flow cytometric cell count; type: cell-based, human; conditions: 96 hours of culture
Method: Cell lines: Human leukemic cell lines were obtained from the American Type Culture Collection (ATCC, Rockville, Md., USA). They were cultured in Iscove's Modified Dulbecco's Medium (IMDM) supplemented with 10% heat inactivated fetal calf serum (FCS), 200 U/ml penicillin, 200 μg/ml streptomycin and 1 μg/ml amphotericin B. Cells were cultured in a 5% CO2-95% air fully humidified incubator. For effects on clonogenic output, 1000 cells/well were plated in duplicate in methylcellulose (0.9%), supplemented with 20% FCS and cultured for 14 days.
(§1) Cells were plated at 10000 per well in 200 μl IMDM medium and incubated with 0-50 μM of the compounds of the invention (Table 5), by addition of the drugs directly to the culture medium and incubated at 37° C. for 96 hours. Absolute cell number was determined by addition of a known concentration of Fluoresbrite microspheres (FITC) (Polysciences, Inc.). The absolute number of cells per well was calculated as: {(total number of beads added per well)/(number of beads measured)}×(number of measured cells in the gate of interest). All analyses were performed with a FACScan (BD), using CELLQuest software (Becton Dickinson).
The response of the myeloid leukemia KG1 and T-lymphocyte leukemia Molt3 cell lines to the cytostatic effect of the novel compounds was determined using the above-mentioned standardized bead suspension that was used to determine the absolute cell number by flow cytometric (FCM) measurement. Cells were grown in the presence of increasing concentrations of the compounds of the invention.

[2] = system: PHA-stimulated lymphocytes (PBMC); test: cell number of PHA-stimulated lymphocytes (PBMC), flow cytometry; type: cell-based, human; conditions: 96 hours, in the presence of IL-2; for CC50: Homo sapiens, Lymphocyte, read-out: Lymphocytes IC50
Method: Human peripheral blood mononuclear cells were isolated by density gradient (Ficoll-Hypaque) (LSM, ICN Biomedicals Inc.). PBMC were stimulated with 5 μg/ml phytohemaglutinin A (PHA) (Sigma) during 24-48 hours in IMDM supplemented with 10% FCS (IMDM/10% FCS) at 37° C. After washing off the PHA, PBMC were incubated with interleukin-2 (IL-2) (10 U/ml) (Genzyme).
as §1
The novel compounds were tested for cytotoxicity on PHA-stimulated lymphocytes (PBMC), as one of the normal counterparts of the cell lines. Cells were grown for 96 hours in the presence of IL-2 and different concentrations of the novel compounds and cell number was counted on the flow cytometer.

CDC2 = target: T1, CDC2 (Homo sapiens, UniProt P06493); test: p34cdc2 (CDC2) kinase inhibition assay, histone H1 substrate; type: biochemical
T1 construct: made in house; host or cells: Sf9 insect cells, baculovirus co-infection
T1 sequence (P06493 whole entry, species assumed): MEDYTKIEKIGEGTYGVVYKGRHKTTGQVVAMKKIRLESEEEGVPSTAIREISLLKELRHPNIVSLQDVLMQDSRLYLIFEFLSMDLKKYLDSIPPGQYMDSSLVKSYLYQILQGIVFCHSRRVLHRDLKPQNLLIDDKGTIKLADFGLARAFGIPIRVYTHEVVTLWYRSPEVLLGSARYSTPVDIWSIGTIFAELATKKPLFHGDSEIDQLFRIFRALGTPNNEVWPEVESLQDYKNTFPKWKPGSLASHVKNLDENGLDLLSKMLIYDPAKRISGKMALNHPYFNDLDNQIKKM
T1 sequence (P14635 whole entry partner, species assumed): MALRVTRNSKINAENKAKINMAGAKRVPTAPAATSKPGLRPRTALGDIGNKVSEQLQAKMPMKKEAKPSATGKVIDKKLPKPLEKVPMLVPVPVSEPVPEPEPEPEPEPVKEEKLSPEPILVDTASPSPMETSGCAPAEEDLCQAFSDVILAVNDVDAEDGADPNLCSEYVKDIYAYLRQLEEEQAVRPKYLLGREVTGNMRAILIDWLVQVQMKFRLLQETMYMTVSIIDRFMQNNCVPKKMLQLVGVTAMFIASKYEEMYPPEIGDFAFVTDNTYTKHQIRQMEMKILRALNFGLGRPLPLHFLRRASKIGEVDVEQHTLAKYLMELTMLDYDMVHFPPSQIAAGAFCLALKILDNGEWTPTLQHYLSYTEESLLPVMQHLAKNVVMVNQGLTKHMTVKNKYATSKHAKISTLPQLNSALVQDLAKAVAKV
Method: Cyclin-dependent kinases (p34^cdc2, p33^cdk2, p33^cdk4 and cyclins (cyclin B, E and DI) are produced in Sf9 insect cells coinfected with appropriate baculoviral constructs. The cells are harvested 68-72 hrs post infection in lysis buffer for 30 min on ice and the soluble fraction is recovered by centrifugation at 14.000 g for 10 min. The protein extract is stored at −80° C.
To carry out experiments on kinetics under linear conditions, the final point test system for kinase activity measurement is used. The kinase is added to the reaction mixture in such a way that linear activity is obtained with respect to the concentration of enzyme and with respect to time.
Inhibition of p33^cdk4 kinase is determined with Rb-GST (0.2 mg/ml) as the substrate. Kinase activity is determined at 30° C. in kinase buffer.
Tested compounds are usually dissolved to 100 mM solutions in DMSO, the final concentration of DMSO in reaction mixture never exceeds 1%. The controls contain suitable dilutions of DMSO. After 10 min, the addition of 3×SDS sample buffer stops the incubations. […] The measurement of kinase activity is done using digital image analysis. The kinase activity is expressed as a percentage of maximum activity, the apparent inhibition constants are determined by graphic analysis. Kinase buffer: 50 mM Hepes pH 7.4, 10 mM MgCl21 5 mM EGTA, 10 mM 2-glycerolphosphate,

[3] = system: myeloid leukemia KG1 cell line; test: cell growth of KG1 cell line, flow cytometric cell count; conditions: read-out: KGI IC50
Method: To determine reversibility of the effects of the new compounds, cells were plated at 10,000 per well and exposed to 0-50 μM of the composed, either continuously for 7 days (control) or only for 6 hours. In the latter case, cells were washed after 6 hours in phosphate-buffered-saline (PBS) (Life Technologies) and reseeded into drug-free medium for 7 days.

[4] = system: T-lymphoblastic leukemia cell line CEM; test: MTT cytotoxicity assay, CEM; type: cell-based, human; conditions: 72 hours (TCS50 in the method)
Description: (§2) One of the parameters used as the basis for colorimetric assays is the metabolic activity of viable cells. For example, a microtiter assay, which uses the tetrazolium salt MTT, is now widely used to quantitate cell proliferation and cytotoxicity. For instance, this assay is used in drug screening programs and in chemosensitivity testing. Because only metabolically active cells cleave tetrazolium salts, these assays detect viable cells exclusively. In the case of MTT assay, yellow soluble tetrazolium salt is reduced to coloured water-insoluble formazan salt. After it is solubilized, the formazan formed can easily and rapidly be quantified in a conventional ELISA plate reader at 570 nm (maximum absorbance). The quantity of reduced formazan corresponds to number of vital cells in the culture. Human T-lymphoblastic leukemia cell line CEM; promyelocytic HL-60 and monocytic U937 leukemias; breast carcinoma cell lines MCF-7, BT549, MDA-MB-231; glioblastoma U87MG cells; cervical carcinoma cells HELA; sarcoma cells U20S and Saos2; hepatocellular carcinoma HepG2; mouse immortalized bone marrow macrophages B2.4 and B10A.4; P388D1 and L1210 leukemia; B16 and B16F10 melanomas were used for routine screening of the compounds according to the invention. The cells were maintained in Nunc/Corning 80 cm^2 plastic tissue culture flasks and cultured in cell culture medium (DMEM with 5 g/l glucose, 2 mM glutamine, 100 U/ml penicillin, 100 μg/ml streptomycin, 10% fetal calf serum and sodium bicarbonate).
(§3) The cell suspensions that were prepared and diluted according to the particular cell type and the, expected target cell density (2500-30000 cells per well based on cell growth characteristics) were added by pipette (80 μl) into 96-well microtiter plates. Inoculates were allowed a pre-incubation period of 24 hours at 37° C. and 5% CO2 for stabilisation. Four-fold dilutions of the intended test concentration were added at time zero in 20 μl aliquots to the microtiter plate wells. Usually, test compound was evaluated at six 4-fold dilutions. In routine testing, the highest well concentration was 266.7 μM, but it can be the matter of change dependent on the agent. All drug concentrations were examined in duplicates. Incubations of cells with the test compounds lasted for 72 hours at 37° C., in 5% CO2 atmosphere and 100% humidity. At the end of incubation period, the cells were assayed by using the MTT. Ten microliters of the MTT stock solution were pipetted into each well and incubated further for 1-4 hours. After this incubation period, formazan was solubilized by addition of 100 μl/well of 10% SDS in water (pH=5.5) followed by further incubation at 37° C. overnight. The optical density (OD) was measured at 540 nm with the Labsystem iEMS Reader MF (UK). The tumour cell survival (TCS) was calculated using the following equation: TCS=(ODdrug exposed well/mean ODcontrol wells)×100%. The TCS50 value, the drug concentration lethal to 50% of the tumour cells, was calculated from the obtained dose response curves.
(§4) The cytoxicity of novel compounds was tested on panel of cell lines of different histogenetic and species origin (Table 7). Equal activities were found in all tumour cell lines tested. […] Importantly, this observation distinguishes the purine derivatives of the invention from flavopiridol and related compounds, as their biological activity is dependent on p53 status.

B16 melanoma = test: MTT cytotoxicity assay, B16; type: cell-based, mouse; conditions: 72 hours (TCS50 in the method)
Description: as §2, §3, §4

normal human lymphocytes = test: concanavalin A induced lymphocyte proliferation, [3H]-TdR incorporation; type: cell-based; conditions: 72 hours, read-out: ED50 (the source's name)
Method: Human heparinized peripheral blood was obtained from healthy volunteers by cubital vein punction. The blood was diluted in PBS (1:3) and mononuclear cells were separated by centrifugation in Ficoll-Hypaque density gradient (Pharmacia, 1.077 g/ml) at 2200 rpm for 30 minutes. Following centrifugation, lymphocytes were washed in PBS and resuspended in cell culture medium (RMPI 1640, 2 mM glutamine, 100 U/ml penicillin, 100 μg/ml streptomycin, 10% fetal calf serum and sodium bicarbonate).
The cells were diluted at target density of 1100000 cells/ml and were added by pipette (180 μl) into 96/well microtiter plates. Four-fold dilutions of the intended test concentration were added at time zero in 20 μl aliquots to the microtiter plate wells. Usually, test compound was evaluated at six 4-fold dilutions. In routine testing, the highest well concentration was 266.7 μM. All drug concentrations were examined in duplicates. All wells with exception of unstimulated controls were activated with 50 μl of concanavalin A (25 μg/ml). Incubations of cells with test compounds lasted for 72 hours at 37° C., in 5% CO2 atmosphere and 100% humidity. At the end of incubation period, the cells were assayed by using the [^3H]-TdR:
Cell cultures were incubated with […] (20 μl of stock solution 500 μCi/ml) per well for 6 hours at 37° C. and 5% CO2. The automated cell harvester was used to lyse cells in water and adsorb the DNA onto glass-fiber filters in the format of microtiter plate. The DNA incorporated [^3H]-TdR was retained on the filter while unincorporated material passes through. The filters were dried at room temperature overnight, sealed into a sample bag with 10-12 ml of scintillant. The amount of [^3H]-TdR present in each filter (in cpm) was determined by scintillation counting in a Betaplate liquid scintillation counter. The effective dose of immunosuppressant (ED) was calculated using the following equation: ED=(cpmdrug exposed well/mean cpmcontrol wells)×100%. The EDs50 value, the drug concentration inhibiting proliferation of 50% of lymphocytes, was calculated from the obtained dose response curves.
To evaluate immunosuppressive activity of substituted adenines, their ability to inhibit polyclonal mitogen induced proliferation of normal human lymphocytes was analyzed (Table 8). […] Effective immunosuppressive dose of new derivatives under in vitro conditions was close to 1-20 μM.

IκB-α = IκB-α kinase-inhibitory activity; type: biochemical; conditions: Table 3
Description: Modification of 2,6,9-trisubstituted purines by a catechol-like substituent at R6 leads to an increase in cdk inhibitory activity of the tested compounds.

[5] = Table 5, CDC2 activity in cell free system

Compound	IC50 [4] [µM]	IC50 (B16 melanoma) [µM]	EC50 (normal human lymphocytes) [µM]	further results
CC(C)n1cnc2c(NC(CO)c3ccccc3)nc(SCCO)nc21 (centres unmarked) [P22, 2-(2-hydroxyethylthio)-6-(1-phenyl-2-hydroxyethylamino)-9-isopropylpurine]	–	–	–	IC50 ([1]; Homo sapiens, MOLT-3): 17 ± 1.7 µM; CC50 [2]: 11 ± 1.5 µM; IC50 (CDC2; [5]): 3.8 µM; IC50 ([3]; Homo sapiens, KG-1, 96 h): 13 ± 1.4 µM
CCCCCCNc1nc(NCc2ccc(O)c(O)c2)c2ncn(C(C)C)c2n1	22	21	–	–
CC(C)n1cnc2c(NC(CO)c3ccccc3)nc(NCC(O)CO)nc21 [P26, 2-(2,3-dihydroxypropylamino)-6-[(R,S)-(1-phenyl-2-hydroxyethyl)amino]-9-isopropylpurine]	–	–	–	IC50 ([1]; Homo sapiens, MOLT-3): 23.7 ± 3.4 µM; CC50 [2]: 20 ± 1 µM; IC50 (CDC2; [5]): > 100 µM; IC50 ([3]; Homo sapiens, KG-1, 96 h): 20 ± 1 µM
CC(C)n1cnc2c(N(C)CCc3ccc(O)c(O)c3)nc(NCCO)nc21	27	26	4	–
CC[C@H](CO)Nc1nc(NCc2ccc(O)cc2)c2ncn(C(C)C)c2n1 [P19]	–	–	–	IC50 [1]: 15 ± 2 µM; IC50 [2]: 6 µM; IC50 ([3]; 96 hours of culture): 11 ± 1.3 µM
CC(C)n1cnc2c(NC(CO)c3ccccc3)nc(NCCO)nc21 (racemic)	18	19	38	IC50 (CDC2; Table 3): 1.4 µM
Cn1cnc2c(NCc3ccc(O)c(O)c3)nc(NCCO)nc21	–	–	–	IC50 (CDC2; Table 3): 4.2 µM; IC50 (IκB-α): 10.8 µM
CC(C)n1cnc2c(NC(CO)c3ccccc3)nc(NC[C@H](C)O)nc21 (some centres unmarked)	8	5.6	27	–
CCCCCCNc1nc(N(C)CCc2ccc(O)c(O)c2)c2ncn(C(C)C)c2n1	33	32	15	IC50 (CDC2; Table 3): 2.6 µM
CC(O)CNc1nc(NC(CO)c2ccccc2)c2ncn(C(C)C)c2n1 (centres unmarked)	–	–	–	IC50 (CDC2; Table 3): 0.6 µM
CC(C)n1cnc2c(NCc3ccc(O)c(O)c3)nc(NCCO)nc21	35	32	–	–
CC(C)n1cnc2c(NCc3ccc(O)c(O)c3)nc(NC[C@H](C)O)nc21	12	10	–	–
CC(C)n1cnc2c(NC(CO)c3ccccc3)nc(CCCCCC#N)nc21 (racemic) [P24, 2-(5-cyanopentyl)-6-[(R,S)-(1-phenyl-2-hydroxyethyl)amino]-9-isopropylpurine]	–	–	–	IC50 [1]: 42.5 ± 6 µM; IC50 [2]: 33 ± 4.4 µM; IC50 (CDC2; [5]): 6.3 µM; IC50 ([3]; 96 hours of culture): 42 ± 4.8 µM
CC(C)n1cnc2c(N(C)CCc3ccc(O)c(O)c3)nc(NC[C@@H](C)O)nc21	13	14	7	–
CC(Nc1nc(NCCCO)nc2c1ncn2C(C)C)c1ccc(O)c(O)c1 (centres unmarked) [P18]	–	–	–	IC50 [1]: 23 ± 2.8 µM; IC50 [2]: 14.9 ± 2.9 µM; IC50 (CDC2; [5]): 2.6 µM; IC50 ([3]; 96 hours of culture): 18.7 ± 0.3 µM
CC(C)n1cnc2c(NC(CO)c3ccccc3)nc(NC[C@@H](C)O)nc21 (some centres unmarked)	70	74.6	23	–
Cn1cnc2c(NC(CO)c3ccccc3)nc(N3CCOCC3)nc21 (centres unmarked) [P21, 2-(morpholino)-6-(1-phenyl-2-hydroxyethylamino)-9-methylpurine]	–	–	–	IC50 ([1]; Homo sapiens, MOLT-3): 50 ± 1.3 µM; CC50 [2]: 40 ± 7.7 µM; IC50 (CDC2; [5]): 6.5 µM; IC50 ([3]; Homo sapiens, KG-1, 96 h): 48 ± 1.5 µM
CC(C)n1cnc2c(N(C)CCc3ccc(O)c(O)c3)nc(NC[C@H](C)O)nc21	43	40	8	–
CC[C@@H](CO)Nc1nc(NC(CO)c2ccccc2)c2ncn(C(C)C)c2n1 (some centres unmarked)	20	24	14	–
CC(C)n1cnc2c(SCc3ccccc3)nc(NCCCO)nc21 [P25, 2-(3-hydroxypropylamino)-6-benzylthio-9-isopropylpurine]	–	–	–	IC50 ([1]; Homo sapiens, MOLT-3): 19 ± 2 µM; CC50 [2]: 18 ± 1.6 µM; IC50 (CDC2; [5]): > 100 µM; IC50 ([3]; Homo sapiens, KG-1, 96 h): 42 ± 5 µM
CCCCCCNc1nc(NC(C)c2ccc(O)c(O)c2)c2ncn(C(C)C)c2n1 (centres unmarked) [P17]	–	–	–	IC50 [1]: 24 ± 6.2 µM; IC50 [2]: 18 ± 2.8 µM; IC50 (CDC2; [5]): 1 µM; IC50 ([3]; 96 hours of culture): 35.3 ± 5.7 µM
CC[C@@H](CO)Nc1nc(N(C)CCc2ccc(O)c(O)c2)c2ncn(C(C)C)c2n1	36	34	1.8	–
CC(Nc1nc(NCCCO)nc2c1ncn2C(C)C)c1ccc(O)c(O)c1 (centres unmarked) [P20]	–	–	–	IC50 [2]: 35 ± 7.3 µM
CC(C)n1cnc2c(NCc3ccc(O)c(O)c3)nc(NC[C@@H](C)O)nc21	35	41	–	–
CC[C@@H](CO)Nc1nc(NCc2ccc(O)c(O)c2)c2ncn(C(C)C)c2n1	51	53	–	–
